{
  "source": "PubChem BioAssay AID1963839",
  "about": "(Molecular Pharmacology Branch, DTP, NCI, 2024);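 note: spheroids exposed to compounds for 7 days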;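 for viability, T/C: 100% = DMSO vehicle-treated spheroids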",
  "test_system": "817829-284-R-J1-PDC complex spheroid viability",
  "experiment": "Anticancer human tumor 817829-284-R-J1-PDC patient-derived colon adenocarcinoma cell line growth inhibition [POLQ]",
  "details": "for IC50: curve of first compound; for viability, T/C: stronger effect = lower value",
  "in_short": "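Patient-derived tumour cells were co-cultured with HUVEC and mesenchymal stem cells as multicellular spheroids at 37 °C. They were treated with POLQ inhibitors (novobiocin, ART-558, RP6685) alone or combined with other agents. Top concentrations were at or near clinical Cmax (otherwise 10 microM; SN-38 at 1 microM), decreasing in half-log steps.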",
  "key": {"[1]": {"details": "second compound 0.0316 µM, first compound 0.0316 µM"}, "[2]": {"details": "second compound 0.0316 µM, first compound 0.1 µM"}, "[3]": {"details": "second compound 0.0316 µM, first compound 0.316 µM"}, "[4]": {"details": "second compound 0.0316 µM, first compound 1 µM"}, "[5]": {"details": "second compound 0.0316 µM, first compound 3.16 µM"}, "[6]": {"details": "second compound 0.0316 µM, first compound 10 µM"}, "[7]": {"details": "second compound 0.1 µM, first compound 0.0316 µM"}, "[8]": {"details": "second compound 0.1 µM, first compound 0.1 µM"}, "[9]": {"details": "second compound 0.1 µM, first compound 0.316 µM"}, "[10]": {"details": "second compound 0.1 µM, first compound 1 µM"}, "[11]": {"details": "second compound 0.1 µM, first compound 3.16 µM"}, "[12]": {"details": "second compound 0.1 µM, first compound 10 µM"}, "[13]": {"details": "second compound 0.316 µM, first compound 0.0316 µM"}, "[14]": {"details": "second compound 0.316 µM, first compound 0.1 µM"}, "[15]": {"details": "second compound 0.316 µM, first compound 0.316 µM"}, "[16]": {"details": "second compound 0.316 µM, first compound 1 µM"}, "[17]": {"details": "second compound 0.316 µM, first compound 3.16 µM"}, "[18]": {"details": "second compound 0.316 µM, first compound 10 µM"}, "[19]": {"details": "second compound 1 µM, first compound 0.0316 µM"}, "[20]": {"details": "second compound 1 µM, first compound 0.1 µM"}, "[21]": {"details": "second compound 1 µM, first compound 0.316 µM"}, "[22]": {"details": "second compound 1 µM, first compound 1 µM"}, "[23]": {"details": "second compound 1 µM, first compound 3.16 µM"}, "[24]": {"details": "second compound 1 µM, first compound 10 µM"}, "[25]": {"details": "second compound 3.16 µM, first compound 0.0316 µM"}, "[26]": {"details": "second compound 3.16 µM, first compound 0.1 µM"}, "[27]": {"details": "second compound 3.16 µM, first compound 0.316 µM"}, "[28]": {"details": "second compound 3.16 µM, first compound 1 µM"}, "[29]": {"details": "second compound 3.16 µM, first compound 3.16 µM"}, "[30]": {"details": "second compound 3.16 µM, first compound 10 µM"}, "[31]": {"details": "second compound 10 µM, first compound 0.0316 µM"}, "[32]": {"details": "second compound 10 µM, first compound 0.1 µM"}, "[33]": {"details": "second compound 10 µM, first compound 0.316 µM"}, "[34]": {"details": "second compound 10 µM, first compound 1 µM"}, "[35]": {"details": "second compound 10 µM, first compound 3.16 µM"}, "[36]": {"details": "second compound 10 µM, first compound 10 µM"}},
  "data": [
    {"smiles": "Nc1ccn(C2OC(CO)C(O)C2(F)F)c(=O)n1", "note": "(centres undefined) + Cc1cccc(N(C)C(=O)C2C(O)CCN2c2nc(C)cc(C(F)(F)F)c2C#N)c1", "values": [
      {"measurement": "IC50", "setting": "second compound 0.0316 µM", "result": "< 31.6", "unit": "nM"},
      {"measurement": "IC50", "setting": "second compound 0.1 µM", "result": "< 31.6", "unit": "nM"},
      {"measurement": "IC50", "setting": "second compound 0.316 µM", "result": "< 31.6", "unit": "nM"},
      {"measurement": "IC50", "setting": "second compound 1 µM", "result": "< 31.6", "unit": "nM"},
      {"measurement": "IC50", "setting": "second compound 3.16 µM", "result": "< 31.6", "unit": "nM"},
      {"measurement": "IC50", "setting": "second compound 10 µM", "result": "< 31.6", "unit": "nM"},
      {"measurement": "viability, T/C", "setting": "[1]", "result": 4.93, "unit": "%"},
      {"measurement": "viability, T/C", "setting": "[2]", "result": 6.34, "unit": "%"},
      {"measurement": "viability, T/C", "setting": "[3]", "result": 5.78, "unit": "%"},
      {"measurement": "viability, T/C", "setting": "[4]", "result": 4.47, "unit": "%"},
      {"measurement": "viability, T/C", "setting": "[5]", "result": 4.13, "unit": "%"},
      {"measurement": "viability, T/C", "setting": "[6]", "result": 3, "unit": "%"},
      {"measurement": "viability, T/C", "setting": "[7]", "result": 5.1, "unit": "%"},
      {"measurement": "viability, T/C", "setting": "[8]", "result": 4.91, "unit": "%"},
      {"measurement": "viability, T/C", "setting": "[9]", "result": 5.63, "unit": "%"},
      {"measurement": "viability, T/C", "setting": "[10]", "result": 4.62, "unit": "%"},
      {"measurement": "viability, T/C", "setting": "[11]", "result": 3.58, "unit": "%"},
      {"measurement": "viability, T/C", "setting": "[12]", "result": 2.89, "unit": "%"},
      {"measurement": "viability, T/C", "setting": "[13]", "result": 6.1, "unit": "%"},
      {"measurement": "viability, T/C", "setting": "[14]", "result": 5.35, "unit": "%"},
      {"measurement": "viability, T/C", "setting": "[15]", "result": 5.35, "unit": "%"},
      {"measurement": "viability, T/C", "setting": "[16]", "result": 5.17, "unit": "%"},
      {"measurement": "viability, T/C", "setting": "[17]", "result": 4.11, "unit": "%"},
      {"measurement": "viability, T/C", "setting": "[18]", "result": 2.77, "unit": "%"},
      {"measurement": "viability, T/C", "setting": "[19]", "result": 4.92, "unit": "%"},
      {"measurement": "viability, T/C", "setting": "[20]", "result": 5.99, "unit": "%"},
      {"measurement": "viability, T/C", "setting": "[21]", "result": 4.9, "unit": "%"},
      {"measurement": "viability, T/C", "setting": "[22]", "result": 4.77, "unit": "%"},
      {"measurement": "viability, T/C", "setting": "[23]", "result": 3.54, "unit": "%"},
      {"measurement": "viability, T/C", "setting": "[24]", "result": 2.95, "unit": "%"},
      {"measurement": "viability, T/C", "setting": "[25]", "result": 5.03, "unit": "%"},
      {"measurement": "viability, T/C", "setting": "[26]", "result": 5.55, "unit": "%"},
      {"measurement": "viability, T/C", "setting": "[27]", "result": 6.02, "unit": "%"},
      {"measurement": "viability, T/C", "setting": "[28]", "result": 4.31, "unit": "%"},
      {"measurement": "viability, T/C", "setting": "[29]", "result": 4.69, "unit": "%"},
      {"measurement": "viability, T/C", "setting": "[30]", "result": 3.24, "unit": "%"},
      {"measurement": "viability, T/C", "setting": "[31]", "result": 6.79, "unit": "%"},
      {"measurement": "viability, T/C", "setting": "[32]", "result": 5.07, "unit": "%"},
      {"measurement": "viability, T/C", "setting": "[33]", "result": 5.13, "unit": "%"},
      {"measurement": "viability, T/C", "setting": "[34]", "result": 4.16, "unit": "%"},
      {"measurement": "viability, T/C", "setting": "[35]", "result": 4.17, "unit": "%"},
      {"measurement": "viability, T/C", "setting": "[36]", "result": 2.99, "unit": "%"}
    ]},
    {"smiles": "O=c1[nH]cc(F)c(=O)[nH]1", "note": "+ Nc1ccc(C#CCN(C(=O)Cc2ncc(C(F)(F)F)cc2C(F)(F)F)c2ccc(F)cc2)nn1", "values": [
      {"measurement": "IC50", "setting": "second compound 0.0316 µM", "result": 1250, "unit": "nM"},
      {"measurement": "IC50", "setting": "second compound 0.1 µM", "result": 1770, "unit": "nM"},
      {"measurement": "IC50", "setting": "second compound 0.316 µM", "result": 1710, "unit": "nM"},
      {"measurement": "IC50", "setting": "second compound 1 µM", "result": 1600, "unit": "nM"},
      {"measurement": "IC50", "setting": "second compound 3.16 µM", "result": 1370, "unit": "nM"},
      {"measurement": "IC50", "setting": "second compound 10 µM", "result": 1300, "unit": "nM"},
      {"measurement": "viability, T/C", "setting": "[1]", "result": 99.6, "unit": "%"},
      {"measurement": "viability, T/C", "setting": "[2]", "result": 110, "unit": "%"},
      {"measurement": "viability, T/C", "setting": "[3]", "result": 95.6, "unit": "%"},
      {"measurement": "viability, T/C", "setting": "[4]", "result": 54.1, "unit": "%"},
      {"measurement": "viability, T/C", "setting": "[5]", "result": 34, "unit": "%"},
      {"measurement": "viability, T/C", "setting": "[6]", "result": 28.1, "unit": "%"},
      {"measurement": "viability, T/C", "setting": "[7]", "result": 96.4, "unit": "%"},
      {"measurement": "viability, T/C", "setting": "[8]", "result": 102, "unit": "%"},
      {"measurement": "viability, T/C", "setting": "[9]", "result": 84.4, "unit": "%"},
      {"measurement": "viability, T/C", "setting": "[10]", "result": 64.4, "unit": "%"},
      {"measurement": "viability, T/C", "setting": "[11]", "result": 35.8, "unit": "%"},
      {"measurement": "viability, T/C", "setting": "[12]", "result": 27, "unit": "%"},
      {"measurement": "viability, T/C", "setting": "[13]", "result": 100, "unit": "%"},
      {"measurement": "viability, T/C", "setting": "[14]", "result": 98.8, "unit": "%"},
      {"measurement": "viability, T/C", "setting": "[15]", "result": 93.3, "unit": "%"},
      {"measurement": "viability, T/C", "setting": "[16]", "result": 63.9, "unit": "%"},
      {"measurement": "viability, T/C", "setting": "[17]", "result": 34, "unit": "%"},
      {"measurement": "viability, T/C", "setting": "[18]", "result": 23.7, "unit": "%"},
      {"measurement": "viability, T/C", "setting": "[19]", "result": 108, "unit": "%"},
      {"measurement": "viability, T/C", "setting": "[20]", "result": 89.3, "unit": "%"},
      {"measurement": "viability, T/C", "setting": "[21]", "result": 93.5, "unit": "%"},
      {"measurement": "viability, T/C", "setting": "[22]", "result": 60.5, "unit": "%"},
      {"measurement": "viability, T/C", "setting": "[23]", "result": 33.7, "unit": "%"},
      {"measurement": "viability, T/C", "setting": "[24]", "result": 26.1, "unit": "%"},
      {"measurement": "viability, T/C", "setting": "[25]", "result": 86.2, "unit": "%"},
      {"measurement": "viability, T/C", "setting": "[26]", "result": 108, "unit": "%"},
      {"measurement": "viability, T/C", "setting": "[27]", "result": 77.2, "unit": "%"},
      {"measurement": "viability, T/C", "setting": "[28]", "result": 55.8, "unit": "%"},
      {"measurement": "viability, T/C", "setting": "[29]", "result": 38.1, "unit": "%"},
      {"measurement": "viability, T/C", "setting": "[30]", "result": 27.4, "unit": "%"},
      {"measurement": "viability, T/C", "setting": "[31]", "result": 92.1, "unit": "%"},
      {"measurement": "viability, T/C", "setting": "[32]", "result": 92.8, "unit": "%"},
      {"measurement": "viability, T/C", "setting": "[33]", "result": 85.5, "unit": "%"},
      {"measurement": "viability, T/C", "setting": "[34]", "result": 54.8, "unit": "%"},
      {"measurement": "viability, T/C", "setting": "[35]", "result": 33, "unit": "%"},
      {"measurement": "viability, T/C", "setting": "[36]", "result": 26.7, "unit": "%"}
    ]}
  ]
}
